Results on 1 compound are retold here after patent publication US12544365B2, “Pharmaceutical combination of an EP4 antagonist and immune checkpoint inhibitors for the treatment of tumours” (ROTTAPHARM BIOTECH S.R.L., priority 2019, dated 2026).

SMILES strings stand for the structures.

Series [1] concerns RANK-L gene expression in MDA-MB-231 cells. The series is described as follows: RANK-L gene expression in MDA-MB-231 cells stimulated with PGE2, RT-PCR. Format: cell-based, human. Particulars: 10 μM compound + 10 μM PGE2, 24 hours. Here is the method:
The human mammary gland adenocarcinoma MDA-MB-231 cells were obtained from ATCC and grown according to the instructions provided.
Cells were treated with 10 μM PGE2+Compound 1 10 μM for 24 hours. Total RNA was purified using the ABI Prism 6100 Nucleic Acid PrepStation (Applied Biosystems, Foster City, CA, USA) and retrotranscribed using the High-Capacity cDNA Reverse Transcription Kit (Thermo Fisher Scientific). RT-PCR analysis was performed using the Applied Biosystems 7500 Fast Real-Time PCR System using specific TaqMan assays (Hs00243522_m1; Thermo Fisher Scientific) and, as an endogenous control, the 18S Pre-Developed TaqMan® Assay (Thermo Fisher Scientific). The data analysis, with normalisation on 18S amplified values, was done following Thermo Fisher Scientific specific instructions for gene expression relative quantification. All individual data are the result of at least three different analyses for each sample.
MDA-MB-231 cells treated with 10 μM PGE2+Compound 1 10 μM for 24 hours and the levels of RANKL gene expression were evaluated by quantitative RT-PCR.

Series [2] in a line: Physical and chemical stability testing of solid forms (mechanical, thermal stress).
Series [3] relates to TNF-α gene expression in human THP-1 macrophages. The series is described as follows: TNF-α gene expression in THP-1 cells differentiated to macrophages (LPS + PGE2), RT-PCR. Format: cell-based. To be noted: LPS 10 ng/ml + PGE2 10 nM, 3 hours, concentration as low as 0.1 μM. Here is the method: The human monocyte cell line THP-1, obtained from the ATCC, was grown according to the instructions provided. THP-1 cells were differentiated to macrophages with 100 nM phorbol 12-myristate 13-acetate (PMA) (Sigma Aldrich) for 4 days. Macrophages were then stimulated with lipopolysaccharide (LPS) (Sigma Aldrich) 10 ng/ml and PGE2 0.01 μM for 3 hours. Total RNA was purified using the ABI Prism 6100 Nucleic Acid PrepStation (Applied Biosystems, Foster City, CA, USA) and retrotranscribed using the High-Capacity cDNA Reverse Transcription Kit (Thermo Fisher Scientific). RT-PCR analysis was performed using the Applied Biosystems 7500 Fast Real-Time PCR System using specific TaqMan assays (number Hs00174128_m1; Thermo Fisher Scientific) and, as an endogenous control, the 18S Pre-Developed TaqMan® Assay (Thermo Fisher Scientific). The data analysis, with normalisation on 18S amplified values, was done following Thermo Fisher Scientific's specific instructions for gene expression relative quantification. All individual data are the result of at least three different analyses for each sample.
To evaluate the Compound 1 potential in counteracting the PGE2 induced inhibition of TNF-α gene expression in human macrophages, THP-1 cells were differentiated to macrophages and subsequently treated with LPS 10 ng/ml plus PGE2 10 nM+Compound 1 in the 0.01 μM to 10 μM concentrations range for 3 hours.

In series [4] the target is human recombinant EP4 receptor (Homo sapiens, UniProt P35408). The series is described as follows: [3H]-PGE2 specific binding on human recombinant EP4 receptor (HEK293 membranes). Here is the method: Cell membranes were prepared from HEK293 cell line (Human Embryonic Kidney 293) stably overexpressing human recombinant EP4 receptor. Cells grow adherent in DMEM with Glutamax | containing 10% FBS at 37° C. with 5% CO2. For membranes preparation, culture medium was aspirated from 150 cm^2 flasks in which cells were seeded. Cell monolayers were washed with 10 ml of hypotonic lysis buffer (TRIS 5 mM+EDTA 5 mM-pH 7.4), then cells were detached and lysed with the same buffer and by mechanical scraping. Lysates were centrifuged at 40000×g at 4° C. for 22 min. Pellets were stored at −80° C. until the use.
Sequence of human recombinant EP4 receptor (P35408 whole entry): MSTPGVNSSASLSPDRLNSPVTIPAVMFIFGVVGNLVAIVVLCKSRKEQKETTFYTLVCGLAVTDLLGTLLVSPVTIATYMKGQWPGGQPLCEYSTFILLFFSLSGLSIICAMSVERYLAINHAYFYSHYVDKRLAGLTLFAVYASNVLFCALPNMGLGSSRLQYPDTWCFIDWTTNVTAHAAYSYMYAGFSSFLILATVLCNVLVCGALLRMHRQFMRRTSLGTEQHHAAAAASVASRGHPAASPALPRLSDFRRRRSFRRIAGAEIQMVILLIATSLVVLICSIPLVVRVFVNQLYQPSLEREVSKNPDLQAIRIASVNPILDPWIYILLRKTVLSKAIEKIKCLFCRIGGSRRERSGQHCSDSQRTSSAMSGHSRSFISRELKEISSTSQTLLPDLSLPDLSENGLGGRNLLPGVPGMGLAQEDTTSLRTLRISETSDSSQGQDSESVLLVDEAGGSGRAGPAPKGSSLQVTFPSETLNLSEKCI
[3H]-Prostaglandin E2 ([3H]-PGE2) binding assays were performed in 10 mM MES-KOH buffer pH6, containing 10 mM MgCl2 and 1 mM CaCl2. Ten microgram of protein from membrane fractions are incubated in a total volume of 0.1 ml with 1 nM [3H]-PGE2. In order to determine the total binding or the non specific binding, 1% DMSO or 1 μM PGE2 were added to reaction mixtures, respectively. The specific binding represented >85% of total binding. In competition curves, the diluent was substituted by the test compounds (8 concentration spanning at least 2 order of magnitude; points in duplicates). In an independent series of experiments, competition curves of the same compounds were performed in the presence of Bovine Serum Albumin 0.5%. Incubation was carried out in a 96 multiwell plate for 90 min at room temperature, prior to separation of the bound and free radioligand by rapid filtration on glass fiber filters (Unifilter GFB96, PerkinElmer Inc) pre-soaked in 0.3% polyethyleneimine. Filters were washed with ice cold buffer pH 7.4 (50 mM HEPES, NaCl 500 mM, BSA 0.1%), dried for 30 minutes at 30° C. and then 0.1 ml of MICROSCINT-20 (PerkinElmer Inc) were added. The residual [3H]-PGE2 binding was determined by solid scintillation counter (TopCount, PerkinElmer Inc), after at least 1 hour of stabilization. Results of the competition curves were expressed as IC50 and the corresponding Ki were calculated according to the Chang-Prousoff equation. Finally the Ki value was transformed in pKi (the negative log of Ki).

Series [5] is described as follows: Stability of Form A at different humidity values and temperatures. The format is physicochemical. From the text: The stability of the Form A (named also as Compound 1) of the sodium salt of R)-4-(1-(6-(4-(trifluoromethyl)benzyl)-6-azaspiro[2.5]octane-5-carboxamido)cyclopropyl)benzoic acid at different humidity values and temperatures was investigated.
Series [6] concerns Treg differentiation of human CD4+ naïve T cells. The series is described as follows: Ex vivo human T regulatory cells differentiation (flow cytometry). The format is cell-based. Particulars: 0.1 μM compound, 0.03 μM PGE2, 144 hours. The procedure: Peripheral blood mononuclear cells (PBMC) were isolated from healthy volunteers using density gradient centrifugation and CD4+naïve T cells were enriched from PBMCs using human naïve CD4+ T cell isolation kit (Miltenyi Biotech). Isolated CD4+ T cells were maintained in RPMI medium and differentiated toward a Treg phenotype using two interleukins, namely, rIL23 and rIL-1B, both at a concentration of 10 ng/ml and co-stimulated with PGE2 at 30 nM concentration over a 144 hours incubation period.
At the end of incubation cells were stained with fluorescence conjugated antibodies specific for CD3, CD4, FoxP3, CD25, IL35 and CRTH2 (all from BD Bioscience). Finally, the number of Treg cells was determined by flow cytometry and the events were measured by Fluorescence Activated Cell Sorter (FACS; BD Bioscience) and analyzed with dedicated software.
In general terms: In flow cytometry, cells or beads pass a laser one at a time.

As to `O=C([O-])c1ccc(C2(NC(=O)[C@H]3CC4(CCN3Cc3ccc(C(F)(F)F)cc3)CC4)CC2)cc1.[Na+]` [Compound 1, sodium (R)-4-(1-(6-(4-(trifluoromethyl)benzyl)-6-azaspiro[2.5]octane-5-carboxamido)cyclopropyl)benzoate], the “RANK-L gene expression vs 10 μM PGE2” value in series [1] is on record as “markedly decreased”. The “thermodynamic stability of the form” value in series [2] is reported as “most thermodynamically stable anhydrous form”. Further, the “physical stability (conversion to amorphous form)” value in series [2] (mechanical or thermal stress) was “more stable towards amorphization by thermal stress”. Moreover, the “TNF-α gene expression vs cells treated with PGE2+LPS only” value in series [3] is “two to three fold increase”. In addition, the inhibitory constant (Ki) – broadly, a measure of affinity in units of concentration, obtained from inhibition or displacement – is 25.1 nM in series [4] (BSA 0.5%) and 12.6 nM in series [4] (None (absence of BSA)). In addition, the Stability result in series [5] (Powder, 50% RH −30° C.) is “Stable >24 hours”; in series [5] (Powder, 80° C.), “Stable >5 days”; in series [5] (Powder, RT) it was “Stable >1 month”; in series [5] (Sealed foil/Poly bag, 70% RH −40° C.), “Stable >3 months”. For the same compound, the Treg cell differentiation entry in series [6] is listed as “significantly decreased”.
